Source: patent US20230192878A1, “METHODS, THERAPIES AND USES FOR TREATING CANCER” (PFIZER INC., priority 2020, published 2023)

Columns and labels:
RPMI8226 [1] = assay: Soluble BCMA (sBCMA) shedding after GSI (ELISA); assay type: cell-based, Human; set-up: unit not given here; conditions: Table 6 (sBCMA in supernatant, ELISA), 24 hours
Experimental: (§1) Multiple myeloma cells (MM.1S, OPM2, H929, Molp8, RPMI8226) were seeded in a 96-well U-bottom plate at 40,000 cells/well. Cells were incubated for 24 hours in the presence of GSI diluted in RPMI medium (0.1% DMSO). The following concentrations of the GSI were tested: 1000 nM, 500 nM, 100 nM, 50 nM, 25 nM, 10 nM, 5 nM, 2.5 nM, 1 nM, 0.1 nM, 0.01 nM. After 24 hours, cell culture medium was collected and concentration of sBCMA was measured in supernatants using Human BCMA/TNFRSF17 DuoSet ELISA kit (R&D Systems) according to manufacturer's instructions.

H929 [2] = assay: Soluble BCMA (sBCMA) shedding after GSI (ELISA); assay type: cell-based, Human; set-up: unit not given here; conditions: Table 6 (sBCMA in supernatant, ELISA), 24 hours
Experimental: as §1

Molp8 = assay: Cell surface BCMA expression after GSI, time course and washout; assay type: cell-based
Experimental: (§2) Multiple myeloma cells (MM.1S, OPM2, H929, Molp8, RPMI8226) were seeded in a 6-well plate at 800,000 cells/2 ml/well with GSI diluted at 1 μM in RPMI medium (with 0.1% DMSO). Cells were collected to evaluate cell surface BCMA expression at baseline, and then at 3 hours, 6 hours and 24 hours after addition of the GSI. After 24 hours of incubation with the GSI, cells were washed twice in PBS and re-plated in fresh 6-well plates. […] At the indicated time points, samples were stained with a ZombieNIR Viability dye (Biolegend) for 20 minutes at room temperature at 1 in 500 dilution in PBS, washed with PBS+2% FBS and further stained with anti-BCMA PE-labelled antibody diluted in PBS+2% FBS for 30 minutes at 4° C. Samples were acquired on BD Flow Cytometer and analyzed using FlowJo software. Dead cells were removed from the analysis by gating on ZombieNIR negative population. BCMA MFI was plotted as a histogram.

RPMI8226 [3] = assay: as above; assay type: cell-based
Experimental: as §2

MM.1S = assay: as above; assay type: cell-based
Experimental: as §2

H929 [4] = assay: as above; assay type: cell-based
Experimental: as §2

OPM2 = assay: as above; assay type: cell-based
Experimental: as §2

MM.1S-PD-L1 = assay: Subcutaneous MM.1S-PD-L1 multiple myeloma mouse model; assay type: in vivo; conditions: alone or +anti-PD-1 5 mg/kg, dosing from Day 21
Experimental: MM.1S multiple myeloma cells were engineered to express PD-L1 and are referred to as MM.1S-PD-L1. Pre-activated and expanded T cells (20×10^6) were administered on Day 19 after MM.1S-PDL1 tumor cell inoculation subcutaneously (SC). BCMAxCD3 bispecific (0.3 or 1 mg/kg) or negative bispecific (1 mg/kg) was administered IV on Day 21 and dosed Q7Dx3. Anti-PD-1 mAb was administered at 5 mg/kg intraperitoneally (IP) twice a week starting on Day 21. Tumor measurements were recorded 2 to 3 times a week using digital calipers. N (at study start) is 5-12 animals per group.

## CCC[C@H](N[C@H]1CCc2cc(F)cc(F)c2C1)C(=O)Nc1cn(C(C)(C)CNCC(C)(C)C)cn1 [GSI, nirogacestat]
RPMI8226 [1]; RPMI8226, GSI 0.01 nM
  BCMA (-PE) MFI: 4710.8
RPMI8226 [1]; RPMI8226, GSI 0.1 nM
  BCMA (-PE) MFI: 3333.8
RPMI8226 [1]; RPMI8226, GSI 1 nM
  BCMA (-PE) MFI: 2647.5
RPMI8226 [1]; RPMI8226, GSI 2.5 nM
  BCMA (-PE) MFI: 2398
RPMI8226 [1]; RPMI8226, GSI 5 nM
  BCMA (-PE) MFI: 2525.6
RPMI8226 [1]; RPMI8226, GSI 10 nM
  BCMA (-PE) MFI: 1926.2
RPMI8226 [1]; RPMI8226, GSI 25 nM
  BCMA (-PE) MFI: 836.5
RPMI8226 [1]; RPMI8226, GSI 50 nM
  BCMA (-PE) MFI: 249.5
RPMI8226 [1]; RPMI8226, GSI 100 nM
  BCMA (-PE) MFI: 64.1
RPMI8226 [1]; RPMI8226, GSI 500 nM
  BCMA (-PE) MFI: 0 ± 0
RPMI8226 [1]; RPMI8226, GSI 1000 nM
  BCMA (-PE) MFI: 0 ± 0
H929 [2]; H929, GSI 0.01 nM
  BCMA (-PE) MFI: 24084.8
H929 [2]; H929, GSI 0.1 nM
  BCMA (-PE) MFI: 27414.8
H929 [2]; H929, GSI 1 nM
  BCMA (-PE) MFI: 19516.4
H929 [2]; H929, GSI 2.5 nM
  BCMA (-PE) MFI: 12874.8
H929 [2]; H929, GSI 5 nM
  BCMA (-PE) MFI: 8438.2
H929 [2]; H929, GSI 10 nM
  BCMA (-PE) MFI: 4901.7
H929 [2]; H929, GSI 25 nM
  BCMA (-PE) MFI: 2336.4
H929 [2]; H929, GSI 50 nM
  BCMA (-PE) MFI: 1460.7
H929 [2]; H929, GSI 100 nM
  BCMA (-PE) MFI: 1110.6
H929 [2]; H929, GSI 500 nM
  BCMA (-PE) MFI: 716.5
H929 [2]; H929, GSI 1000 nM
  BCMA (-PE) MFI: 625.1
Molp8; Molp8, GSI 1 μM for 24 h, 3 h post wash
  BCMA (-PE) MFI: 7523
Molp8; Molp8, GSI 1 μM for 24 h, 5 h post wash
  BCMA (-PE) MFI: 5050
Molp8; Molp8, GSI 1 μM for 24 h, 24 h post wash
  BCMA (-PE) MFI: 2960
Molp8; Molp8, GSI 1 μM, 3 h after GSI
  BCMA (-PE) MFI: 2461
Molp8; Molp8, GSI 1 μM, 6 h after GSI
  BCMA (-PE) MFI: 3098
Molp8; Molp8, GSI 1 μM, 24 h after GSI
  BCMA (-PE) MFI: 5307
RPMI8226 [3]; RPMI8226, GSI 1 μM for 24 h, 3 h post wash
  BCMA (-PE) MFI: 6557
RPMI8226 [3]; RPMI8226, GSI 1 μM for 24 h, 5 h post wash
  BCMA (-PE) MFI: 4437
RPMI8226 [3]; RPMI8226, GSI 1 μM for 24 h, 24 h post wash
  BCMA (-PE) MFI: 2688
RPMI8226 [3]; RPMI8226, GSI 1 μM, 3 h after GSI
  BCMA (-PE) MFI: 4437
RPMI8226 [3]; RPMI8226, GSI 1 μM, 6 h after GSI
  BCMA (-PE) MFI: 4527
RPMI8226 [3]; RPMI8226, GSI 1 μM, 24 h after GSI
  BCMA (-PE) MFI: 6340
MM.1S; GSI 1 μM for 24 h, 3 h post wash
  BCMA (-PE) MFI: 33509
MM.1S; GSI 1 μM for 24 h, 5 h post wash
  BCMA (-PE) MFI: 23906
MM.1S; GSI 1 μM for 24 h, 24 h post wash
  BCMA (-PE) MFI: 11170
MM.1S; GSI 1 μM, 3 h after GSI
  BCMA (-PE) MFI: 13690
MM.1S; GSI 1 μM, 6 h after GSI
  BCMA (-PE) MFI: 14920
MM.1S; GSI 1 μM, 24 h after GSI
  BCMA (-PE) MFI: 25602
H929 [4]; H929, GSI 1 μM for 24 h, 3 h post wash
  BCMA (-PE) MFI: 15422
H929 [4]; H929, GSI 1 μM for 24 h, 5 h post wash
  BCMA (-PE) MFI: 9313
H929 [4]; H929, GSI 1 μM for 24 h, 24 h post wash
  BCMA (-PE) MFI: 8423
H929 [4]; H929, GSI 1 μM, 3 h after GSI
  BCMA (-PE) MFI: 3653
H929 [4]; H929, GSI 1 μM, 6 h after GSI
  BCMA (-PE) MFI: 3423
H929 [4]; H929, GSI 1 μM, 24 h after GSI
  BCMA (-PE) MFI: 8245
OPM2; OPM2, GSI 1 μM for 24 h, 3 h post wash
  BCMA (-PE) MFI: 21621
OPM2; OPM2, GSI 1 μM for 24 h, 5 h post wash
  BCMA (-PE) MFI: 11050
OPM2; OPM2, GSI 1 μM for 24 h, 24 h post wash
  BCMA (-PE) MFI: 2624
OPM2; OPM2, GSI 1 μM, 3 h after GSI
  BCMA (-PE) MFI: 9257
OPM2; OPM2, GSI 1 μM, 6 h after GSI
  BCMA (-PE) MFI: 9854
OPM2; OPM2, GSI 1 μM, 24 h after GSI
  BCMA (-PE) MFI: 20592

## PF-06863135: heterodimeric humanized full-length bispecific antibody with one BCMA binding arm and one CD3 binding arm
MM.1S-PD-L1; day 14 post tumor cell inoculation, BCMA × CD3 bispecific 0.3 mg/kg
  Tumor Volume ± SEM: 34.4 ± 9.5 mm^3
MM.1S-PD-L1; day 14 post tumor cell inoculation, BCMA × CD3 bispecific 1 mg/kg
  Tumor Volume ± SEM: 26.4 ± 7.5 mm^3
MM.1S-PD-L1; day 18 post tumor cell inoculation, BCMA × CD3 bispecific 0.3 mg/kg
  Tumor Volume ± SEM: 91.6 ± 18 mm^3
MM.1S-PD-L1; day 18 post tumor cell inoculation, BCMA × CD3 bispecific 1 mg/kg
  Tumor Volume ± SEM: 92 ± 17.1 mm^3
MM.1S-PD-L1; day 20 post tumor cell inoculation, BCMA × CD3 bispecific 0.3 mg/kg
  Tumor Volume ± SEM: 122.5 ± 20.7 mm^3
MM.1S-PD-L1; day 20 post tumor cell inoculation, BCMA × CD3 bispecific 1 mg/kg
  Tumor Volume ± SEM: 130.7 ± 24.6 mm^3
MM.1S-PD-L1; day 25 post tumor cell inoculation, BCMA × CD3 bispecific 0.3 mg/kg
  Tumor Volume ± SEM: 403 ± 59 mm^3
MM.1S-PD-L1; day 25 post tumor cell inoculation, BCMA × CD3 bispecific 1 mg/kg
  Tumor Volume ± SEM: 601.1 ± 70^ mm^3
MM.1S-PD-L1; day 28 post tumor cell inoculation, BCMA × CD3 bispecific 0.3 mg/kg
  Tumor Volume ± SEM: 403.3 ± 67.6 mm^3
MM.1S-PD-L1; day 28 post tumor cell inoculation, BCMA × CD3 bispecific 1 mg/kg
  Tumor Volume ± SEM: 482.9 ± 32.6 mm^3
MM.1S-PD-L1; day 32 post tumor cell inoculation, BCMA × CD3 bispecific 0.3 mg/kg
  Tumor Volume ± SEM: 603.6 ± 151.6 mm^3
MM.1S-PD-L1; day 32 post tumor cell inoculation, BCMA × CD3 bispecific 1 mg/kg
  Tumor Volume ± SEM: 410.5 ± 82.7 mm^3
MM.1S-PD-L1; day 35 post tumor cell inoculation, BCMA × CD3 bispecific 0.3 mg/kg
  Tumor Volume ± SEM: 835.1 ± 77.2 mm^3
MM.1S-PD-L1; day 35 post tumor cell inoculation, BCMA × CD3 bispecific 1 mg/kg
  Tumor Volume ± SEM: 627.9 ± 111.8 mm^3
MM.1S-PD-L1; day 39 post tumor cell inoculation, BCMA × CD3 bispecific 0.3 mg/kg
  Tumor Volume ± SEM: 1569.3 ± 151.8 mm^3
MM.1S-PD-L1; day 39 post tumor cell inoculation, BCMA × CD3 bispecific 1 mg/kg
  Tumor Volume ± SEM: 1436.8 ± 276.4 mm^3
